Data on three compounds can be found in ChEMBL document CHEMBL1201862, “PubChem BioAssay data set” (2004).

A word on the IC50: it is the concentration that inhibits the measured activity by half.

Calls of active or inactive are those of the source. No stated cut-off is given here; in the data, actives have a measured IC50 and inactives only a lower limit.

Chain of Envelope glycoprotein gp160 (Q6QLK5 whole entry, the tested form may be a part): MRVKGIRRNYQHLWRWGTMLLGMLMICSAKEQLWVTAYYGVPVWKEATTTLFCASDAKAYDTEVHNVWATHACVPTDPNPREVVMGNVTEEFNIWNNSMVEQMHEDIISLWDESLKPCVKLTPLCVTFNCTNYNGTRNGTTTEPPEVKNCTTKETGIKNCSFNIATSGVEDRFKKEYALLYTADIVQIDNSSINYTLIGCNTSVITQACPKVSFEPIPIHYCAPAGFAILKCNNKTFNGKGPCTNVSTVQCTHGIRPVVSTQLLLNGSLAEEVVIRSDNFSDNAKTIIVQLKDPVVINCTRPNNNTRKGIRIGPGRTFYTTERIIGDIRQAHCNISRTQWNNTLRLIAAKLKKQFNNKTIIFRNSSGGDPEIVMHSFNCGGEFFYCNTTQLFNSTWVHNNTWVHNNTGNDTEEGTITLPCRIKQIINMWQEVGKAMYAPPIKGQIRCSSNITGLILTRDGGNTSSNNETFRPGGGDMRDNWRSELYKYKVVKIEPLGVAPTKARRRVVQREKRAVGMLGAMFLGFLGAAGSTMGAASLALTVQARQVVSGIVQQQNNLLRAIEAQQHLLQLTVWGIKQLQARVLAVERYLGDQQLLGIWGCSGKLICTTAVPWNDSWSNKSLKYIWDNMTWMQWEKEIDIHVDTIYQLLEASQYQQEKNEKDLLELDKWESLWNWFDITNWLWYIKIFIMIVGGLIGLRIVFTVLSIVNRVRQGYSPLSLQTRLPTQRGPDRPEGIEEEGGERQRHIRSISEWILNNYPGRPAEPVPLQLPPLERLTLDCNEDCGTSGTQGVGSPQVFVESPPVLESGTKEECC

The experiment has as its target Envelope glycoprotein gp160 (Human immunodeficiency virus 1, UniProt Q6QLK5). The experiment is described as follows: cell-free HIV fusion peptide-binding blockers – biochemical, uHTS, fluorescence dequenching, […] (AID 1986).
As for `COc1ccc(-c2nn(-c3ccccc3)cc2/C=C2/SC(=S)N(CCC(=O)O)C2=O)c(C)c1`, the half-maximal inhibitory concentration (IC50) was 12.5 µM (active). Consider `COc1cccc(NS(=O)(=O)c2ccc3c(c2)C2C=CCC2C(c2ccc(C(=O)O)cc2)N3)c1` (stereo not drawn), for which the half-inhibitory concentration (IC50) is 11.9 µM (active).

`CCS(=O)(=O)C1=NN2C(=N)/C(=C\c3ccc(OCCOc4cccc(OC)c4)c(OC)c3)C(=O)N=C2S1`: the half-inhibitory concentration (IC50) is 9.24 µM (active).
